Laboratory results published in US9468209B2, “Method for eradicating weeds with derivatives of 3-acetyl-5-sec-butyl-4-hydroxy-3-pyrrolin-2-one” (priority 2012, dated 2016).

What was measured:
[1] = test system: monocotyledon weeds (such as common crabgrass and barnyardgrass) and dicotyledonous weeds including Crofton weeds; conditions: concentration of 50 μg/mL; cited from earlier work
rat = conditions: called moderate toxicity; cited from earlier work
Hill reaction [2] = conditions: versus 3-(3,4-dichlorophenyl)-1,1-dimethylurea (DCMU); cited from earlier work
Crofton weed [3] = assay: Needle puncture pathogenic test on slightly wounded leaf of Crofton weed; assay type: in vivo; conditions: Crofton weed leaf, analogs with formula (I) and (II)
Procedure: 3-acetyl-5-sec-butyl-4-hydroxy-3-pyrrolin-2-one analogs were dissolved in a small amount of methanol and diluted with water to a concentration of 5-100 μg/g. A pathogenic test was conducted by placing the toxic liquid on the slightly wounded leaf of Crofton weed with a needle. The test has shown that the pathogenic capability of 3-acetyl-5-sec-butyl-4-hydroxy-3-pyrrolin-2-one analogs with respect to Crofton weed increases with the increase of concentration. The spot diameter caused on the leaf of Crofton weed after 24 hours was 2 mm at 50 μg/g.
3-acetyl-5-sec-butyl-4-hydroxy-3-pyrrolin-2-one analogue (Table 3, compounds 10-57) was dissolved in small amount of methanol. The solution was then diluted with distilled water to a concentration of 50 μg/mL. Methanol solution with same concentration and pure distilled water were used as control of the experiment. A pathogenic test was conducted by placing the toxic liquid on the slightly wounded leaf of Crofton weed with a needle. The experiment was carried out at 25° C. under the natural light and each test was repeated 6 times. It was measure the diameter of the spot after 24 h. […] The size of the side chain also has an effect on their activity.
Fourteen salts of 3-acetyl-5-sec-butyl-4-hydroxy-3-pyrrolin-2-one analogs were dissolved in small amount of methanol and diluted with distilled water to a concentration of 50 μg/mL. Methanol/water mixture was also prepared and used as control. Needle puncture method was used for the test on the small pieces of Crofton weed. Each treatment was repeated six times or more. The test samples were kept under natural light at 25° C. for 24 hours. The diameters of damaged spot of the plant leaves were measured by vernier caliper.

Crofton weed [4] = assay: Spray on leaves and stems of three-leaf-stage Crofton weed seedlings grown in pots in a greenhouse; assay type: in vivo; set-up: key: 4: Plant completely dead; 3: Two thirds of the plant stems and leaves dried out; 2: Half of the plant stems and leaves dried out; 1: One third of the plant stems and leaves dried out; 0: No damage at all; conditions: 50 μg/mL spray, assessed two days later
Procedure: Compounds 1, 2, 3, and 40 were separately dissolved in a small amount of methanol. The solutions were then diluted with distilled water to a concentration of 50 μg/mL. A mixture of methanol and water in the same ratio as the sample solution was also prepared and used as control in the experiment. The solutions were sprayed on leaves and stems of three-leaf-stage Crofton weed seedlings. All the plants were grown in pot in a greenhouse. The leaves were properly wet by the solutions for consistency and the treatment was repeated 3 times. The measurement of the plant damage was calculated by the formula: Damage Index=Σ(damage level×number of plants)×100/4/number of plants in each treatment.

Crofton weed [5] = assay: Needle puncture test on Crofton weed with washes recovered from compound-treated soil; assay type: in vivo; conditions: after soil treatment (3 hours)
Procedure: Compounds 1, 2, 3, and 40 were dissolved in small amount of methanol and diluted with distilled water to concentration of 50 μg/mL. The solution was sprayed to the soil sample until the soil was wet but not overflows. After standing at room temperature for 3 hours, the soil sample was washed with water and methanol. The wash solution was collected and concentrated. Such process was repeated three times. The concentrated solutions were used for herbicidal activity test using the method of needle puncture on Crofton weed. Methanol water solution and pure water were used as control. The experiment for every sample was repeated six times. The spot diameters were measured with vernier caliper after the plant was kept under natural light at 25° C. for 24 hours (Table 11).

[6] = test system: fluorescence of chlorophyll; assay: Fluorescence of chlorophyll of treated Crofton weed leaves; assay type: biochemical; conditions: 50 μg/mL, strong light 12 hours
Procedure: (§1) Compounds 10-57 were dissolved in small amount of methanol. The solutions were then diluted with distilled water to a concentration of 50 μg/mL. A mixture of methanol and water in the same ratio as the sample solution was also prepared and used as control in the experiment. The healthy leaves of Crofton weed were washed in water for 30 minutes and then rinsed with distilled water. The clean and tissue dried leaves were placed in petri dish with the back-side of the leaves facing up. Wet filter paper was also placed in the in petri dish for moisture control. Water, methanol and chemical solutions of the analogues were applied to the back-side of each leaf. Test sample was then placed in vacuum chamber at 25° C. for 15 min followed by exposure to the strong light (400 μM m^−2 s^−1) for 12 hours. The leaf sample went through a series of test, and the Hill reaction rate, the electron transfer activity and fluorescence of chlorophyll were measured. Four leaves were used for each treatment and each test was repeated three times.

photosystem II = assay: PSII oxygen evolution / electron transfer activity of treated Crofton weed leaves; assay type: biochemical; conditions: 50 μg/mL, strong light 12 hours
Procedure: as §1

Hill reaction [7] = assay: Hill reaction activity of treated Crofton weed leaves; assay type: biochemical; conditions: 50 μg/mL, strong light 12 hours
Procedure: as §1

Row | SMILES | killing monocotyledon and dicotyledonous weeds [1] | toxicity to rat (rat) | inhibition to Hill reaction compared with DCMU (Hill reaction [2]) | Avg. diameter of the spot after 24 h (Crofton weed [3]) | Time of disease spot to occur (Crofton weed [3]) | Damage level (Crofton weed [4]) | Average diameter of the spot after 24 h, H2O wash (Crofton weed [5]) | Average diameter of the spot after 24 h, Methanol wash (Crofton weed [5]) | Fv/Fm [6] | PSII Activity of oxygen evolution (photosystem II) | Activity of Hill Reaction (Hill reaction [7])
1 | CCC(C)C1NC(=O)C(C(C)=O)=C1O (stereo not drawn) [3-acetyl-5-sec-butyl-4-hydroxy-3-pyrrolin-2-one] | very effective | 200 mg/kg | much higher than the typical photosynthetic inhibitor |  |  |  |  |  |  |  | 
2 | CCC(C)C1NC(=O)CC1=O (stereo not drawn) [Compound 1] |  |  |  | 1.97 ± 0.04 mm | 22.3 ± 0.77 h | 2 | 0.223 ± 0.077 mm | 0.292 ± 0.041 mm | 0.82 | 50.89 uMO2/mgChlh | 98.76 uMO2/mgChlh
3 | CCCC(Cl)C1NC(=O)CC1=O (stereo not drawn) [Compound 2] |  |  |  | 2.96 ± 0.01 mm | 22.0 ± 2.30 h | 2 | 0.280 ± 0.030 mm | 0.362 ± 0.012 mm | 0.84 | 37.02 uMO2/mgChlh | 69.41 uMO2/mgChlh
4 | CCC(C)C1NC(=O)C=C1O (stereo not drawn) [Compound 3] |  |  |  | 2.31 ± 0.09 mm | 20.9 ± 1.01 h | 1 | 0.273 ± 0.062 mm | 0.334 ± 0.082 mm | 0.83 | 32.14 uMO2/mgChlh | 62.21 uMO2/mgChlh
